Assay results published in patent US20060193781A1, “Magnetic resonance imaging of metal concentrations” (priority 2002, published 2006).
Read-outs that look alike come from different tables or passages of the source.

Tests used:
[1] = for T2 bound / T2 free: 2 mM complexing agent, 400 MHz, 25° C.
Method: All fluorine NMR spectra were collected with a 400 MHz Oxford/Varian Unity Plus spectrometer at 25° C. The nominal 90° pulse width was 7.8 μsec. Transverse relaxation times were determined by the best fit of data collected using the Carr-Purcell-Meiboom-Gill sequence supplied with the spectrometer.
A 1 M solution of Ultra Pure ZnCl2 (Sigma) was prepared and diluted in a serial fashion to produce intermediate stock solutions of concentration 100 mM and 10 mM in water. A 200 mM solution of 5-T-BAPTA (Molecular Probes) was prepared and added to aliquots of either zinc solution, as appropriate, in sufficient quantity to yield a final, fixed concentration of 2 mM of the complexing agent.

[2] = Fluorine nuclear relaxation times T1 and T2 and chemical shift of 5F-BAPTA with and without zinc, in water and octanol; format: physicochemical
Method: All fluorine NMR spectra were collected with a 400 MHz Oxford/Varian Unity Plus spectrometer at 25° C. The nominal 90° pulse width was 7.8 μsec.
An equivalent volume (0.7 ml) n-octanol was added, and the mixture was shaken vigorously. The organic and aqueous phases were separated by pipette and placed in NMR tubes. To the octanol solution was added 0.1 ml deuterated methanol to provide an NMR lock signal.

[3] = Sample 2: ZnCl2 0.5 mM, MgCl2 1.5 mM
[4] = aqueous solution of the zinc complex
[5] = aqueous solution without zinc, HEPES buffer, 400 MHz, 25° C.

Q: Which T2 bound ([1]; Sample 1: ZnCl2 2.0 mM, MgCl2 1.0 mM, CaCl2 2.0 mM) does the source give for `O=C(O)CN(CC(=O)O)c1ccc(C(F)(F)F)cc1OCCOc1cc(C(F)(F)F)ccc1N(CC(=O)O)CC(=O)O` [5T-BAPTA, 1,2-bis-(2-amino-5-trifluoromethylphenoxy)ethane-N,N,N′,N′-tetra acetic acid] here?
A: 0.14 ± 0.03 s

Q: And the “T2 of the complex (Sample 1) relative to T2 of the free complexing agent (Sample 3)” value ([1]; Sample 1 vs Sample 3)?
A: ⅕

Q: What about the T2 bound [1, 3] of the same compound?
A: 0.265 ± 0.025 s

Q: What about the T2 free [1, 3] of the same compound?
A: 0.387 ± 0.012 s

Q: What about the T2 free ([1]; Sample 3: ZnCl2 0 mM, MgCl2 1.65 mM, CaCl2 3.35 mM) of the same compound?
A: 0.763 ± 0.032 s

Q: And the T2 bound ([1]; Sample 4: ZnCl2 3.5 mM, MgCl2 0.5 mM, CaCl2 1.0 mM)?
A: 0.216 ± 0.007 s

Q: With `O=C(O)CN(CC(=O)O)c1ccc(F)cc1OCCOc1cc(F)ccc1N(CC(=O)O)CC(=O)O` [5F-BAPTA, 1,2-bis-(2-amino-5-fluorophenoxy)ethane-N,N,N′,N′-tetraacetic acid] as the compound, how does the “change of fluorine transverse relaxation time upon complexation with Zn^+2” value [2] read?
A: large reduction

Q: What about the T1 value [2, 4] of the same compound?
A: 0.82 ± 0.01 s

Q: What about the T2 value [2, 4] of the same compound?
A: 0.0248±0.0003

Q: And the T1 value [2, 5]?
A: 0.82 ± 0.01 s

Q: What about the T2 value [2, 5] of the same compound?
A: 0.080 ± 0.003 s

Q: And the T2 value ([2]; zinc complex in octanol)?
A: 0.013 ± 0.001 s

Q: What about the T1 value ([2]; zinc complex in octanol solution) of the same compound?
A: 0.53 ± 0.01 s
